Results reported in patent US9221756B2, “Pyrrole derivatives” (priority 2011, dated 2015).
Like-named read-outs stand apart in the source and are kept apart here.

Tests used:
pneumolysin = pneumolysin (Streptococcus pneumoniae serotype 2, UniProt Q04IN8); test: Inhibition of the haemolytic activity of pneumolysin (sheep erythrocytes); type: cell-based; conditions: class symbols of Table 1
[1] = type: in vitro ADME; conditions: human plasma; for [ ] (μM) t0 min. Prodrug (Human) / [ ] (μM) t15 min. Prodrug (Human) / [ ] (μM) t30 min. Prodrug (Human) / [ ] (μM) t60 min. Prodrug (Human) / [ ] (μM) t120 min. Prodrug (Human): 37° C., 10 μM start, prodrug remaining; for [ ] (μM) t15 min. Prodrug (Human): 15 min; for [ ] (μM) t30 min. Prodrug (Human): 30 min; for [ ] (μM) t60 min. Prodrug (Human): 60 min; for [ ] (μM) t120 min. Prodrug (Human): 120 min
Description: (§1) The samples were then analysed by LC-MS/MS to obtain the amount of active compound appearing and prodrug derivative remaining over time. The mouse plasma assay system is considered to be a good model for human behaviour. Nevertheless data obtained in a human plasma assay system was obtained in some cases.
(§2) Prodrug derivatives were assessed in the mouse and human plasma stability assay at a concentration of 10 μM. Test compounds were diluted in DMSO to a final stock concentration of 10 mM. For the purpose of the assay, the stocks prepared were further diluted in DMSO to a concentration of 400 μM and […] were added to 195 μl of mouse or human plasma (pH 7.4) and then incubated at 37° C. The final concentration of DMSO in the plate was 2.5% (v/v). Reactions were terminated at 0, 15, 30, 60 and 120 min after incubation by adding 400 μl of acetonitrile containing 0.55 μM metoprolol and 1% (v/v) formic acid. The plate was then centrifuged at 3000 rpm, for 45 min, at 4° C. 80 μl of supernatant were transferred into a conical bottom 96 well glass coated plate. 40 μl of water were added prior to analysis for prodrug derivative and active species by LC-MS/MS. This assay was performed by a contract research organisation, Cyprotex Discovery Limited, UK, at the request of the inventors at Leicester.
(§3) (1) The active compound was quantified using a 6 point calibration curve prepared in deactivated mouse and human plasma. (2) The percentage of parent compound remaining at each time point relative to 0 min sample was calculated from LC-MS/MS peak area ratios (compound peak area/internal standard peak area). This percentage was then used to determine the concentration of the parent compound at each time point in reference to the starting concentration (10 μM) at time 0 min.

[2] = Conversion of prodrug derivatives to active inhibitors in mouse plasma; type: in vitro ADME; conditions: 37° C., 10 μM start, prodrug remaining; for [ ] (μM) t0 min. Prodrug: 0 min; for [ ] (μM) t15 min. Prodrug: 15 min; for [ ] (μM) t30 min. Prodrug: 30 min; for [ ] (μM) t60 min. Prodrug: 60 min; for [ ] (μM) t120 min. Prodrug: 120 min
Description: as §1, §2, §3

[3] = IC50, inhibition of pneumolysin-induced haemolysis of sheep erythrocytes
[4] = inhibition of pneumolysin-induced haemolysis of sheep erythrocytes

Sequence of pneumolysin (Q04IN8 whole entry): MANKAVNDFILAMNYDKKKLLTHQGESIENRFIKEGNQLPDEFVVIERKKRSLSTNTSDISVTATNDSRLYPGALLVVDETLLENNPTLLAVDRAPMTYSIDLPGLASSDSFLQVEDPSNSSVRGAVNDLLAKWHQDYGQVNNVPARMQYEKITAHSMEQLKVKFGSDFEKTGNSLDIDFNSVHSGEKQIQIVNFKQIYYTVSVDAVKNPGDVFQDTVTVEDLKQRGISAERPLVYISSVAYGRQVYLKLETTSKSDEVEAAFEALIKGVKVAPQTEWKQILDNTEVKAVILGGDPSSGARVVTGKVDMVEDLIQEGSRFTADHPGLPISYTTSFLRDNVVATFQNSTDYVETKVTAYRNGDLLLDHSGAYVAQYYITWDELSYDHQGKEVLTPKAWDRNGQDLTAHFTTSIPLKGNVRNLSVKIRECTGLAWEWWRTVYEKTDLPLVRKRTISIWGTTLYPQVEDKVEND

Structure (SMILES)	IC50 (pneumolysin; [3]) [µM]	[ ] (μM) t0 min. Prodrug (Human) ([1]; 0 min) [µM]	[ ] (μM) t15 min. Prodrug (Human) [1] [µM]	[ ] (μM) t30 min. Prodrug (Human) [1] [µM]	[ ] (μM) t60 min. Prodrug (Human) [1] [µM]	[ ] (μM) t120 min. Prodrug (Human) [1] [µM]	[ ] (μM) t0 min. Prodrug [2] [µM]	[ ] (μM) t15 min. Prodrug [2] [µM]	[ ] (μM) t30 min. Prodrug [2] [µM]	[ ] (μM) t60 min. Prodrug [2] [µM]	[ ] (μM) t120 min. Prodrug [2] [µM]	IC50 (pneumolysin; inhibition of pneumolysin-induced haemolysis of sheep erythrocytes, read-out: IC50) [µM]	IC50 (pneumolysin; [4]) [µM]	[ ] (μM) t0 min. Active (Human) (UL1-012) ([1]; 10 μM prodrug, active UL1-012 appearing, 0 min)
CCOC(=O)c1c(O)c(OP(=O)(O)O)c(C(=O)N(C)C)n1-c1ccc(OC)cc1 [UL1-070, ethyl 5-(dimethylcarbamoyl)-3-hydroxy-1-(4-methoxyphenyl)-4-(phosphonooxy)-1H-pyrrole-2-carboxylate]	20 to 60	10	8.02	8.28	7.70	7.48	10	6.40	4.73	2.43	0.93			
CCOC(=O)c1c(OP(=O)(OCC)OCC)c(O)c(C(=O)N(C)C)n1-c1ccc(OC)cc1 [UL1-094, ethyl 3-((diethoxyphosphoryl)oxy)-5-(dimethylcarbamoyl)-4-hydroxy-1-(4-methoxyphenyl)-1H-pyrrole-2-carboxylate]							10	9.99	9.22	8.78	8.49	20 to 60		
CCOC(=O)c1c(OC(=O)C(C)C)c(OC(=O)C(C)C)c(C(=O)N(C)C)n1-c1ccc(OCCOCCOCCOC)cc1 [UL1-098, 2-(dimethylcarbamoyl)-5-(ethoxycarbonyl)-1-(4-(2-(2-(2-methoxyethoxy)ethoxy)ethoxy)phenyl)-1H-pyrrole-3,4-diyl bis(2-methylpropanoate)]		10	5.42	3.45	1.76	0.65	10	0	0	0	0		> 60	
CCOC(=O)c1c(OC(=O)CCOCCOC)c(OC(=O)CCOCCOC)c(C(=O)N(C)C)n1-c1ccc(OC)cc1 [UL1-105, 2-(dimethylcarbamoyl)-5-(ethoxycarbonyl)-1-(4-methoxyphenyl)-1H-pyrrole-3,4-diyl bis(3-(2-methoxyethoxy)propanoate)]	< 10						10	0	0	0	0			
CCOC(=O)c1c(O)c(OCOP(=O)(O)O)c(C(=O)N(C)C)n1-c1ccc(OC)cc1 [UL1-109, ethyl 5-(dimethylcarbamoyl)-3-hydroxy-1-(4-methoxyphenyl)-4-((phosphonooxy)methoxy)-1H-pyrrole-2-carboxylate]		10	6.22	5.37	3.39	1.72	10	6.87	4.84	2.45	0.73		> 60	
CCOC(=O)c1c(OC(=O)C(C)(C)COCCOCCOC)c(OC(=O)C(C)(C)COCCOCCOC)c(C(=O)N(C)C)n1-c1ccc(OC)cc1 [UL1-111, 2-(dimethylcarbamoyl)-5-(ethoxycarbonyl)-1-(4-methoxyphenyl)-1H-pyrrole-3,4-diyl bis(3-(2-(2-methoxyethoxy)ethoxy)-2,2-dimethylpropanoate)]	< 10	10	2.84	0.80	0.09	0.00	10	4.74	2.47	1.16	0.47			<LOQ
COc1ccc(-n2c(C(=O)N(C)C)c(OC(=O)C(C)C)c(OC(=O)C(C)C)c2C(=O)N(C)C)cc1 [UL1-114, 2,5-bis(dimethylcarbamoyl)-1-(4-methoxyphenyl)-1H-pyrrole-3,4-diyl bis(2-methylpropanoate)]	10 to 20	10	9.53	9.48	8.22	7.22	10	0	0	0	0			
CCOC(=O)c1c(OCOP(=O)(O)O)c(O)c(C(=O)N(C)C)n1-c1ccc(OC)cc1 [UL1-115, ethyl 5-(dimethylcarbamoyl)-4-hydroxy-1-(4-methoxyphenyl)-3-((phosphonooxy)methoxy)-1H-pyrrole-2-carboxylate]	20 to 60	10	10.8	9.41	6.69	2.98	10	7.56	4.04	1.54	0.38			
CCOC(=O)c1c(OC(=O)C(C)(C)COCCOCCOP(=O)(O)O)c(OC(=O)C(C)(C)COCCOCCOP(=O)(O)O)c(C(=O)N(C)C)n1-c1ccc(OC)cc1 [UL1-117, 2-(dimethylcarbamoyl)-5-(ethoxycarbonyl)-1-(4-methoxyphenyl)-1H-pyrrole-3,4-diyl bis(2,2-dimethyl-3-(2-(2-(phosphonooxy)ethoxy)ethoxy)propanoate)]	10 to 20	10	14.9	10.1	4.28	1.12	10	5.92	4.26	1.41	0.21			
CCOC(=O)c1c(OC(=O)C(C)(C)COCCCOP(=O)(O)O)c(OC(=O)C(C)(C)COCCCOP(=O)(O)O)c(C(=O)N(C)C)n1-c1ccc(OC)cc1 [UL1-118, 2-(dimethylcarbamoyl)-5-(ethoxycarbonyl)-1-(4-methoxyphenyl)-1H-pyrrole-3,4-diyl bis(2,2-dimethyl-3-(3-(phosphonooxy)propoxy)propanoate)]	< 10						10	6.04	4.00	1.68	0.23			
